Data as given in PMC8213057, “Targeting ALK2: An Open Science Approach to Developing Therapeutics for the Treatment of Diffuse Intrinsic Pontine Glioma” (Journal of Medicinal Chemistry, 2020).

Tests used:
[1] = molecular target: CDK14/cyclin Y (PFTK1) (Homo sapiens, UniProt O94921); assay: biochemical; details: read-out: % enzyme activity, 1 μM; Run 1, Run 2
[2] = molecular target: CK1epsilon (Homo sapiens, UniProt P49674); details: 1 μM; Run 1, Run 2
[3] = molecular target: CDK1/cyclin B (Homo sapiens, UniProt P06493); details: 1 μM; Run 1, Run 2
[4] = molecular target: FGFR4 (Homo sapiens, UniProt P22455); details: 1 μM; Run 1, Run 2
[5] = molecular target: T1, PHKg2 (Homo sapiens, UniProt P15735); assay: biochemical; details: read-out: % enzyme activity, 1 μM; Run 1, Run 2
T1 sequence (P15735 1-406): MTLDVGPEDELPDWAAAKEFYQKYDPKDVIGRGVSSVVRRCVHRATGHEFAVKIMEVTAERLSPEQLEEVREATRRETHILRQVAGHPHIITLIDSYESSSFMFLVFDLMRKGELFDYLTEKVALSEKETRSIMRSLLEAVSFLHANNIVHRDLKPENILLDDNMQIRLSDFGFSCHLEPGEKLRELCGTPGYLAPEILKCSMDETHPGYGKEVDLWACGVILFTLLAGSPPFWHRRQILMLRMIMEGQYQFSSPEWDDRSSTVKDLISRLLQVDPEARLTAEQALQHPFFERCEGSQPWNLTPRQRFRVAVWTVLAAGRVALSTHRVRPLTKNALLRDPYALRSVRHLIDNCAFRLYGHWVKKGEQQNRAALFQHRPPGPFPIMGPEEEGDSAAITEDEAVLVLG

[6] = molecular target: STK38/NDR1 (Homo sapiens, UniProt Q15208); details: 1 μM; Run 1, Run 2
[7] = molecular target: FRK/PTK5 (Homo sapiens, UniProt P42685); details: 1 μM; Run 1, Run 2
[8] = molecular target: c-Kit (Homo sapiens, UniProt P10721); details: 1 μM; Run 1, Run 2
[9] = molecular target: T2, EPHA3 (Homo sapiens, UniProt P29320); details: 1 μM; Run 1, Run 2
T2 sequence (P29320 21-983): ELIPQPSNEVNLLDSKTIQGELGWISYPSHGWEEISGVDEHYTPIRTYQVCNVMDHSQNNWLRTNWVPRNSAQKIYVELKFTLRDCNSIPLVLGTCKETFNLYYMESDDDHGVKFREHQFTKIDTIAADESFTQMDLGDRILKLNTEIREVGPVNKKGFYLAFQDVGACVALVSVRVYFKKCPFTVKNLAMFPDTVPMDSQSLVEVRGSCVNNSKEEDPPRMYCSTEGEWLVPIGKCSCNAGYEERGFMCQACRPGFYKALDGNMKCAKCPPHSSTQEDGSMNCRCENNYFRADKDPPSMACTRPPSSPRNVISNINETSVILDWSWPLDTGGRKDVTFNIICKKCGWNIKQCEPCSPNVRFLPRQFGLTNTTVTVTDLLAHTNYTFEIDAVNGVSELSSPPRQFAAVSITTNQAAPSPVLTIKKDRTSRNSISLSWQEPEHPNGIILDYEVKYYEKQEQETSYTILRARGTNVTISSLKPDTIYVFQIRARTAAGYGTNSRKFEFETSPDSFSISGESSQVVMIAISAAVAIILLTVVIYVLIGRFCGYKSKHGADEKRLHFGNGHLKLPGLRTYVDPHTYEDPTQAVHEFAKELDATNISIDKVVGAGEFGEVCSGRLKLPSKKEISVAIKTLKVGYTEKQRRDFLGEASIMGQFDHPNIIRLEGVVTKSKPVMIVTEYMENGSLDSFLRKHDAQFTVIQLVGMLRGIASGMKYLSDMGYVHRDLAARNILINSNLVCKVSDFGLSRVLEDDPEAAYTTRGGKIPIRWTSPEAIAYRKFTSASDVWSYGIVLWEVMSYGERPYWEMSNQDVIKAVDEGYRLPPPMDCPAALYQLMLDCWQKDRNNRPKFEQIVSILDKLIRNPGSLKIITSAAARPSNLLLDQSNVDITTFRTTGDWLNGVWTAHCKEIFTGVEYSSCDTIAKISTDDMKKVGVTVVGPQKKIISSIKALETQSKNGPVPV

[10] = molecular target: FLT4/VEGFR3 (Homo sapiens, UniProt P35916); details: 1 μM; Run 1, Run 2
[11] = molecular target: MARK3 (Homo sapiens, UniProt P27448); assay: biochemical; details: read-out: % enzyme activity, 1 μM; Run 1, Run 2
[12] = molecular target: MARK1 (Homo sapiens, UniProt Q9P0L2); details: 1 μM; Run 1, Run 2
[13] = molecular target: MARK2/PAR-1Ba (Homo sapiens, UniProt Q7KZI7); details: 1 μM; Run 1, Run 2
[14] = molecular target: JNK3 (Homo sapiens, UniProt P53779); details: 1 μM; Run 1, Run 2
[15] = molecular target: T3, DCAMKL1 (Homo sapiens, UniProt O15075); assay: biochemical; details: read-out: % enzyme activity, 1 μM; Run 1, Run 2
T3 sequence (O15075 1-740): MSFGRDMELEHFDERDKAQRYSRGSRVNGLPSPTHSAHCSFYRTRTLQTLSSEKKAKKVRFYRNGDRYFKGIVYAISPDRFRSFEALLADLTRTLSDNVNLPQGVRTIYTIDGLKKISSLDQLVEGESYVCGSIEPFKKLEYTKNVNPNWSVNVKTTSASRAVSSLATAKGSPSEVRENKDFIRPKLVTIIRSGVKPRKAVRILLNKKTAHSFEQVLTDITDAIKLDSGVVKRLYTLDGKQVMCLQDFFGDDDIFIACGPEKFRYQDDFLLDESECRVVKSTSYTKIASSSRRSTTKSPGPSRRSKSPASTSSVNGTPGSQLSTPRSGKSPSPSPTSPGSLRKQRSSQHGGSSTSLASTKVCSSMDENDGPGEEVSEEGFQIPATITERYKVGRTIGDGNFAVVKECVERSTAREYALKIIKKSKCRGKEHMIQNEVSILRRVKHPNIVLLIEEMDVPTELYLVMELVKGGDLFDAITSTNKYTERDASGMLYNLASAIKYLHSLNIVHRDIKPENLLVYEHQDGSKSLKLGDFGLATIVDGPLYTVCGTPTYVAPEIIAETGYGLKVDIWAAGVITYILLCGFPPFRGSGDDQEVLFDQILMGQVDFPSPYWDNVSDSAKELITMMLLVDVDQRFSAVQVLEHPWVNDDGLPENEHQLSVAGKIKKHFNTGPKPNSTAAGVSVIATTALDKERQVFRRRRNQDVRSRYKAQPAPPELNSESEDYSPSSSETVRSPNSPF

FRK/PTK5, sequence (P42685 whole entry): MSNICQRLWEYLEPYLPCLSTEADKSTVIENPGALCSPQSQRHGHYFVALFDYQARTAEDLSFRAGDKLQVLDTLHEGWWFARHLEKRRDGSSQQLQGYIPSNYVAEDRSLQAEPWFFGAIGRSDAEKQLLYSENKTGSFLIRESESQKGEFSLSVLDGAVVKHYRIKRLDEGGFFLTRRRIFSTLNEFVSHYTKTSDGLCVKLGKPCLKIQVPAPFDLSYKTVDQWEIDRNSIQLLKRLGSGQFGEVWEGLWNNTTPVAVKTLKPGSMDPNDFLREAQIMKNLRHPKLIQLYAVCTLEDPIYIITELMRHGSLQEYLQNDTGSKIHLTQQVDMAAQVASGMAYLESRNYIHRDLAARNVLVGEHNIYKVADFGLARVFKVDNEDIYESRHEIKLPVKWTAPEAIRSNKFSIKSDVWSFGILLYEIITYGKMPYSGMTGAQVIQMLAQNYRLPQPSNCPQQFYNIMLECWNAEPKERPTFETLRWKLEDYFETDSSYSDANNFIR
FGFR4, sequence (P22455 22-802): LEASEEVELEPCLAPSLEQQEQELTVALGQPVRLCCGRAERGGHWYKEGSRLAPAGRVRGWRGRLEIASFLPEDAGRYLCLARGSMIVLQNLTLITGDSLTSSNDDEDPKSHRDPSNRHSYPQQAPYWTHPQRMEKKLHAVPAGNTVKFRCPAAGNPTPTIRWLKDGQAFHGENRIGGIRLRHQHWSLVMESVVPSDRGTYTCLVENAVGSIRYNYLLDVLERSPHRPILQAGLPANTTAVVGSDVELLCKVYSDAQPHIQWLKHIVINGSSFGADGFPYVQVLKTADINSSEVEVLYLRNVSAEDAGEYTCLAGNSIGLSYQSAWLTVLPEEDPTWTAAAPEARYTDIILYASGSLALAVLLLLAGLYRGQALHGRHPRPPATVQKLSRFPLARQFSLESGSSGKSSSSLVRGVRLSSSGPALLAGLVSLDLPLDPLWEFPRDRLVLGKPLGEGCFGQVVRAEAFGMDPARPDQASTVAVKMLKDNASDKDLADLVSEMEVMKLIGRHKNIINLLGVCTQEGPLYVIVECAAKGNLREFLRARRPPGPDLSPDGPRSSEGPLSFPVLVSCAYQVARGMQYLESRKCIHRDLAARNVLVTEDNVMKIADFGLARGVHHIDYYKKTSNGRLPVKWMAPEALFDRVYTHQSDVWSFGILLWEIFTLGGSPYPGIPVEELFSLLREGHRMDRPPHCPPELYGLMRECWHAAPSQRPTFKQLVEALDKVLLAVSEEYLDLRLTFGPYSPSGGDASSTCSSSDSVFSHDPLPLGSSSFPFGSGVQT
JNK3, sequence (P53779 whole entry): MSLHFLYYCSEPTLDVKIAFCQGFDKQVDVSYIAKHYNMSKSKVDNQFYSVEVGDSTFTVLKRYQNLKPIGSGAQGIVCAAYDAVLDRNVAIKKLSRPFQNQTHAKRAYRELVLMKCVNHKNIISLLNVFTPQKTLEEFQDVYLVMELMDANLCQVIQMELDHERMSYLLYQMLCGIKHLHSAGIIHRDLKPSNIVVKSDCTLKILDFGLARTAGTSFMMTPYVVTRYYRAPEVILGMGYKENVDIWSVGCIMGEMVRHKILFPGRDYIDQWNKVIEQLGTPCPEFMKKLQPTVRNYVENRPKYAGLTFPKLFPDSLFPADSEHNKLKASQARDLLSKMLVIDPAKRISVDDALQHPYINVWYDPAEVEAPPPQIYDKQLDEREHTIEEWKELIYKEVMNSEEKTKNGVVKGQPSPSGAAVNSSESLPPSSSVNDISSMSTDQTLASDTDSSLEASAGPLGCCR
STK38/NDR1, sequence (Q15208 whole entry): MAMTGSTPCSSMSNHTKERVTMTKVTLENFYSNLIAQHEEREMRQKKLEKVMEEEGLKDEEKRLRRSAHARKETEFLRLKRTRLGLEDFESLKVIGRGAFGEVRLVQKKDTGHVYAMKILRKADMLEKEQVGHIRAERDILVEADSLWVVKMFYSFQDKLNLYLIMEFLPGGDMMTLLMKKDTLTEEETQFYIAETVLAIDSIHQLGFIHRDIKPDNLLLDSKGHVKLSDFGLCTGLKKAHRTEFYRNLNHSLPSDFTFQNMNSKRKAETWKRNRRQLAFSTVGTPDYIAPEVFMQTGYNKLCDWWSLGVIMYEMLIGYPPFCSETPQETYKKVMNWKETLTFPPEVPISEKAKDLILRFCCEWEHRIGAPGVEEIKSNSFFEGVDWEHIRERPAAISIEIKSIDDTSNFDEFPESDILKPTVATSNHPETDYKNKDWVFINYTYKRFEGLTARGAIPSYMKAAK
MARK1, sequence (Q9P0L2 whole entry): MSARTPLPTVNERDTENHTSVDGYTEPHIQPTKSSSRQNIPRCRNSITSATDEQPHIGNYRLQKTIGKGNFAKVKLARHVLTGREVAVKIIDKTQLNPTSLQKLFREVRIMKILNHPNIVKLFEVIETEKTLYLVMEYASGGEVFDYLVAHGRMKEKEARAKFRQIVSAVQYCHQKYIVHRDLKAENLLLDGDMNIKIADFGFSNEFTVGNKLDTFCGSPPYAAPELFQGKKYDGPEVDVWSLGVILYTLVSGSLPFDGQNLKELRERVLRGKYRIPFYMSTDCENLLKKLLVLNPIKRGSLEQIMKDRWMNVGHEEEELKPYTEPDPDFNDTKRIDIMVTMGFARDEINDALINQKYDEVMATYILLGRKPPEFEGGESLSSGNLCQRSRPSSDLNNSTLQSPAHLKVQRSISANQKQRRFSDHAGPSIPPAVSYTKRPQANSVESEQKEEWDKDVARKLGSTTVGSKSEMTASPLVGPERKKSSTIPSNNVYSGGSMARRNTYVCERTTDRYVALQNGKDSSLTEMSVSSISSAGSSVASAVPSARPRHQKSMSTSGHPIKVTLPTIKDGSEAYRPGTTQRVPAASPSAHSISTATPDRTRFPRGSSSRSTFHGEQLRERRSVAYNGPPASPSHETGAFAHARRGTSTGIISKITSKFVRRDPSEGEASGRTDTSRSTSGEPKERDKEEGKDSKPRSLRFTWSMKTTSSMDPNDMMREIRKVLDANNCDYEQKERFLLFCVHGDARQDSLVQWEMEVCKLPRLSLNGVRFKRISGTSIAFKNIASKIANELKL
MARK2/PAR-1Ba, sequence (Q7KZI7 whole entry): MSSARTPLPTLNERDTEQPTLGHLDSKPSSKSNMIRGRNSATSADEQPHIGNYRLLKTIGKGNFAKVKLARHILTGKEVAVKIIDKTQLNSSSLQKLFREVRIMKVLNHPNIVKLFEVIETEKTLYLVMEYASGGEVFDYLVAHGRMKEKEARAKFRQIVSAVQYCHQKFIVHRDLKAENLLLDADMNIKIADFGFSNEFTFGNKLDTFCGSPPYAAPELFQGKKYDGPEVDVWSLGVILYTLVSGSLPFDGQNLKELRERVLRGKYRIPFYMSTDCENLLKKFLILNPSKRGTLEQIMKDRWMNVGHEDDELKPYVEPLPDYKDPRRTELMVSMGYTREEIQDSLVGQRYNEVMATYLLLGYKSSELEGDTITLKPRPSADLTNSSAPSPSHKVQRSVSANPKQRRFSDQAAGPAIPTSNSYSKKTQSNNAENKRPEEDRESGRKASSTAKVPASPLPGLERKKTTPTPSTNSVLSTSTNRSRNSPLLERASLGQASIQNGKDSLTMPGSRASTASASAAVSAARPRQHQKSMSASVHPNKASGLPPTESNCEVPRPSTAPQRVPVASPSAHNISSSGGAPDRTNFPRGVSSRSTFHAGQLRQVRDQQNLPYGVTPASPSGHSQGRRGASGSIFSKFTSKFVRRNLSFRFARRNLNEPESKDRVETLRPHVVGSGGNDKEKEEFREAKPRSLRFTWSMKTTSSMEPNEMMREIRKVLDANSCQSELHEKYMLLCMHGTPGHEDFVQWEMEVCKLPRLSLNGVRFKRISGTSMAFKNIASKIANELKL
MARK3, sequence (P27448 whole entry): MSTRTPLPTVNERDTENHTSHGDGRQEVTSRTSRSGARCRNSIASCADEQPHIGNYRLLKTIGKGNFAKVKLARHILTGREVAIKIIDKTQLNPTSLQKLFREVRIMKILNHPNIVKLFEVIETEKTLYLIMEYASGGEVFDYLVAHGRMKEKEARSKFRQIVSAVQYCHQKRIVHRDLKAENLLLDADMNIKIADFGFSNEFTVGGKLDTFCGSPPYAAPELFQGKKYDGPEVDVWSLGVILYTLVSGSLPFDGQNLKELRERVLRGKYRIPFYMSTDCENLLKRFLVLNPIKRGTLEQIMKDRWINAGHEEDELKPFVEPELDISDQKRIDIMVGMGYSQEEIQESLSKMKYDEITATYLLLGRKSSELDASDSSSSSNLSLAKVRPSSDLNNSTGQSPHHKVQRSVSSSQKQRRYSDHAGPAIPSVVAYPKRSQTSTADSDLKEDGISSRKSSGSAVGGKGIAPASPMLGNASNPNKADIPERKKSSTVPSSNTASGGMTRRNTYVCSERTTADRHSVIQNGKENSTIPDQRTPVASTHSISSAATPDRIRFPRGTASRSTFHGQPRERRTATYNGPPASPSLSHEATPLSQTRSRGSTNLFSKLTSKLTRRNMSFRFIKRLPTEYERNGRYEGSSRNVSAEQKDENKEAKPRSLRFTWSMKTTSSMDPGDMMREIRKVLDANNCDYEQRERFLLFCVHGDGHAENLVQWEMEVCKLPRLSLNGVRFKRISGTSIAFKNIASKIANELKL
CK1epsilon, sequence (P49674 whole entry): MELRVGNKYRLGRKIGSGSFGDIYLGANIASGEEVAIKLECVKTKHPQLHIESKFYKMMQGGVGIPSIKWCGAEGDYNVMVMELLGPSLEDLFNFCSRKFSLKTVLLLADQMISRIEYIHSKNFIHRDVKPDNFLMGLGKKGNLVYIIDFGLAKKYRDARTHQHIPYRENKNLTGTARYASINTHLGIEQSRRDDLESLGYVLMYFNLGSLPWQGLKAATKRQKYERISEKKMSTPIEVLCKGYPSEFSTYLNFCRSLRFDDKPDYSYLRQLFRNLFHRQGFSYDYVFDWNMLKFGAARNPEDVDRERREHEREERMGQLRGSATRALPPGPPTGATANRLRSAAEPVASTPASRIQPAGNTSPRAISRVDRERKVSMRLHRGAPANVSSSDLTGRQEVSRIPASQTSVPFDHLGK

Compound | remaining activity at 1 µM [1] [%] | % enzyme activity [2] [%] | % enzyme activity [3] [%] | % enzyme activity [4] [%] | remaining activity at 1 µM [5] [%] | % enzyme activity [6] [%] | % enzyme activity [7] [%] | % enzyme activity [8] [%] | % enzyme activity [9] [%] | % enzyme activity [10] [%] | remaining activity at 1 µM [11] [%] | % enzyme activity [12] [%] | % enzyme activity [13] [%] | % enzyme activity [14] [%] | remaining activity at 1 µM [15] [%]
COc1cc(-c2cncc(-c3ccc(N4CCN(C)CC4)cc3)c2C)cc(F)c1C(N)=O [Compound 26a, 2-Fluoro-6-methoxy-4-(4-methyl-5-(4-(4-methylpiperazin-1-yl)phenyl)pyridin-3-yl)benzamide] | 98.4 | 93.07 | 92.35 | 97.61 | 94.9 | 90.38 | 95.48 | 74.03 | 94.70 | 97.81 | 83.5 | 87.63 | 91.66 | 93.66 | 81.8
COc1cc(-c2cncc(-c3ccc(N4C[C@@H](C)N(C)[C@@H](C)C4)cc3)c2C)cc(F)c1C(N)=O [Compound 26c, 2-Fluoro-6-methoxy-4-(4-methyl-5-(4-((3R,5S)-3,4,5-trimethylpiperazin-1-yl)phenyl)pyridin-3-yl)benzamide] | 99.8 | 90.08 | 91.98 | 98.99 | 96.7 | 93.15 | 95.52 | 74.89 | 98.11 | 96.61 | 95 | 89.90 | 103.03 | 100.92 | 89.1
